One assay concerns HUVECs. The experiment in a line: Matrigel morphogenesis assay (endothelial tube/cord formation). It counts as cell-based, human. The settings on record: 1 μM PPP. The procedure: Growth factor-reduced Matrigel was thawed at 4° C. on ice and 300 μl/well were added to a 24-well plate prechilled at −20° C. using a cold pipette. Matrigel was allowed to polymerize for 30 min at 37° C. HUVECs were either left uninfected or were infected with AdLAR or Adβ-gal. In a separate set of experiments, HUVECs were transfected with LAR siRNA or control siRNA as described above. […] In vitro tube formation was assessed after 5 h incubation. Cell cultures were observed under a phase contrast microscope and photographed in five different random fields (10× magnification). The mean tube length per field was quantified using NIH Image J.

For the next assay, the target named is T1, IGF-1Rβ (Homo sapiens, UniProt P08069).
T1 construct: endogenous in cells; host or cells: HUVEC (Cambrex)
T1 sequence (P08069 31-1367): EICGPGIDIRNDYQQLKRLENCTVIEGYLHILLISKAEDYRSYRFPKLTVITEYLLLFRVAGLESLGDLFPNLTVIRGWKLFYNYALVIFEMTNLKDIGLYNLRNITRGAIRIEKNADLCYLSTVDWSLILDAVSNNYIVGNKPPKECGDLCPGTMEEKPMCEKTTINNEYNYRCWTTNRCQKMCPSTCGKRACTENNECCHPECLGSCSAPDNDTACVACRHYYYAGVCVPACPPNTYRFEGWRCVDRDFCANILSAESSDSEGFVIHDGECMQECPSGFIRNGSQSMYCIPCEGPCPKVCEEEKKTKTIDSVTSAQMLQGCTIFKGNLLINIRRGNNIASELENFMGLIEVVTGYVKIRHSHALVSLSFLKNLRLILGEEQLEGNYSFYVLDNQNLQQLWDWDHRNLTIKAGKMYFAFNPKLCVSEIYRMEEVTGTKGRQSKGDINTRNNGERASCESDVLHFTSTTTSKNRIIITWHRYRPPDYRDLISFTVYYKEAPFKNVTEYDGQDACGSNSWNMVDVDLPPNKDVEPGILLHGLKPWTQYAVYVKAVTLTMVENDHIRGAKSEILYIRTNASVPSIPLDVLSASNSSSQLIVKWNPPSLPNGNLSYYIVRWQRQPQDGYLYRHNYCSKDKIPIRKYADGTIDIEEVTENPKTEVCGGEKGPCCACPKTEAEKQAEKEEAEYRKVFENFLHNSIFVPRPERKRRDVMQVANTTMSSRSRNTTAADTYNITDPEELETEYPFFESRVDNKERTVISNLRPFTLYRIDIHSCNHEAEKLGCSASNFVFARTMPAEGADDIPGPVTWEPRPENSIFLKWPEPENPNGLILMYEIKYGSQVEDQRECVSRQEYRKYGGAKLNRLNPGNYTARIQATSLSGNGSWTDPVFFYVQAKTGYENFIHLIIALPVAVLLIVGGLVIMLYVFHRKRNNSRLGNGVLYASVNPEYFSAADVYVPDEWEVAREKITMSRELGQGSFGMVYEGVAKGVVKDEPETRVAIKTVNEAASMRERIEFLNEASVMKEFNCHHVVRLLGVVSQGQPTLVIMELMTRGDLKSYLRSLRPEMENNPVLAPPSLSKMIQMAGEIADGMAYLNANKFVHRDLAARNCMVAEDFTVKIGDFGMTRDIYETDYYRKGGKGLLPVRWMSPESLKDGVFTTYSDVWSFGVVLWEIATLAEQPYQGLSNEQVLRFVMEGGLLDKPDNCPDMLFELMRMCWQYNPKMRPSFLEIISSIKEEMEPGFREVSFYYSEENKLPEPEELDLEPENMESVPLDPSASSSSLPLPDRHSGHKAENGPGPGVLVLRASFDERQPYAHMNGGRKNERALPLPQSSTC
In words: IGF-1-induced IGF-1Rβ autophosphorylation in HUVECs (immunoprecipitation/Western). The class given is cell-based. The procedure: (§1) Human umbilical vein endothelial cells (HUVECs) were purchased from Cambrex (San Diego, Calif.) and were maintained in medium 199 (Mediatech, Inc, Herndon, Va.) containing 90 μg/ml heparin, 30 μg/ml endothelial cell growth supplements (BD Biosciences, Bedford, Mass.), 20% FBS, 50 μg/mL gentamicin, and 50 μg/mL amphotericin. Cultures were maintained at 37° C. in a humidified incubator (95% air, 5% CO2). HUVECs, grown to 80% confluence, were growth arrested by overnight incubation in medium 199 supplemented with 0.1% serum.
(§2) Preparation of cell lysates, immunoprecipitation and immunoblotting were performed as described (Reinmuth et al., Clin. Cancer Res. 8:3259 (2002)).
(§3) Adenoviral infection of nearly confluent HUVECs was performed with indicated multiplicity of infection in medium 199 containing 2% FBS. After 16 h incubation, the cells were quiesced overnight in medium 199 containing 0.1% FBS. Then HUVECs were treated with the indicated agonists in serum-free medium 199.
(§4) The LAR siRNA (sc-35793, containing three siRNAs (SEQ ID NOS:1-3)) and a scrambled, non-silencing siRNA (sc-36869) were obtained from Santa Cruz Biotechnology. […] HUVECs were treated with the indicated agonists in serum-free medium 199 and LAR expression was assessed by Western analysis.

Assay [1] deals with wild-type and LAR−/− mice. In words: In vivo angiogenesis assay (Matrigel plug). Further details: species or system mouse. Conditions: in the presence of PPP. The text has this: The Matrigel plug assay was used to assess in vivo angiogenesis. […] Mice were sacrificed after 10 days and the plugs were carefully dissected from the mice. The plugs were weighed, analyzed histologically or for hemoglobin content using Drabkin hemoglobin assay kit (Sigma Chemical Co., St. Louis, Mo.). Hemoglobin levels in the Matrigel plugs correlate well with blood vessel growth (Volin et al., Am. J. Pathol. 159:1521 (2001)). The Matrigel plugs were homogenized on ice and centrifuged. Fifty μl of the supernatant were mixed with 950 μl Drabkin's reagent and the reaction was allowed to develop at room temperature for 30 min. Absorbance was read at 540 nm and hemoglobin concentration was determined by comparison to a standard curve generated using known concentrations of hemoglobin. For histological analysis, Matrigel plugs were formalin-fixed, paraffin-embedded, cut into 5 μm sections, and Massons trichrome-stained. In brief, sections were hydrated in distilled water, incubated in Bouin's fixative for 3 h to overnight, and then washed in running tap water until yellow color disappeared. […] Image J was used to quantify the number of vessel-like structures in each field. Total number of microvessels containing red blood cells and number of capillaries in a high power field (20× magnifications) were counted. […]

Assay [2] concerns aortic rings from wild-type and LAR−/− mice. The experiment in a line: Ex vivo angiogenesis assay (aortic ring sprouting). Also noted: species or system mouse. The method, then: The angiogenesis assay was performed as described previously (Huang et al., J. Biol. Chem. 277:10760 (2002)) with some modifications. Thoracic aortas were excised from 8-12-week-old wild-type and LAR knockout male mice (DBA background) and immediately placed into cold medium 199 containing 10% FBS. Clotted blood inside the aortas was flushed with media, and the periadventitial fibroadipose tissue was removed. Aortas were then cut into cross-sectional rings of ˜1-1.5 mm in length. Rings were placed into 60-mm dishes containing 0.4 ml of cold growth factor-reduced Matrigel and then incubated at 37° C. until the Matrigel was polymerized. The aortic rings embedded in the Matrigel were overlaid with 0.5 ml of serum-free endothelial cell growth medium with or without the growth factors. The rings were maintained at 37° C. for up to 10 days with medium changes every 2 days. Vascular sprouting from the rings was examined daily under a Leica microscope (10× magnification), and digital images were obtained. Quantitative analysis of endothelial sprouting was performed using images from day 10, and sprout length was quantified using NIH Image J. The distance from the aortic ring body to the end of the vascular sprouts was measured at three distinct points per ring.

Another assay relates to Akt, eNOS and ERK1/2. In words: IGF-1-induced phosphorylation of Akt, eNOS and ERK1/2 in HUVECs (Western). It counts as cell-based, human. The settings on record: 100 ng/mL IGF-1, AdLAR at 2.5 MOI. The method, then: as §1, §2, §3, §4

On to `COc1cc([C@@H]2c3cc4c(cc3[C@H](O)[C@H]3COC(=O)[C@@H]23)OCO4)cc(OC)c1OC` [PPP, picropodophyllin], for which the “IGF-1-induced cord formation in scrambled siRNA and LAR siRNA transfected HUVECs” value in the assay on HUVECs was “abrogated”. Further, the “IGF-1Rβ autophosphorylation in HUVECs treated with IGF-1” value at IGF-1Rβ (1 μM PPP) is reported as “significant inhibition”. The “IGF-1Rβ autophosphorylation in HUVECs treated with IGF-1, dose dependence” value on IGF-1Rβ (PPP pretreatment 1 h, 100 ng/mL IGF-1 10 min) is “dose-dependent inhibition”. In assay [1] (LAR−/− mice), the “Number of microvessels in IGF-1 embedded Matrigel plugs” value is “significantly decreased”. Further, the “Hemoglobin content of IGF-1 embedded Matrigel plugs” value in assay [1] (10 days, significant in LAR−/− mice (P=0.01)) was “decreased in both wild-type and LAR^−/− mice”. In addition, the “Mean length of sprouts from IGF-1 treated wild-type and LAR−/− aortic rings” value in assay [2] (1 μM PPP, 10 days in Matrigel) was “significantly inhibited”.

For “IGF-1: Recombinant human IGF-1 purchased from R&D Systems”, the “IGF-1-induced phosphorylation of Akt, eNOS and ERK1/2” value in the assay on Akt, eNOS and ERK1/2 is listed as “increased”. In addition, in assay [2] (wild-type and LAR−/− mice, IGF-1 treatment, day 10), the “Mean length of newly sprouted vessels from aortic rings” value is given as “significantly enhanced”.
